In patent publication US6656940B2, “Tricyclic quinoxaline derivatives as protein tyrosine kinase inhibitors” (Sugen, Inc., priority 1997, dated 2003):

Assays:
FLK-1 receptor = target: T1, FLK-1 receptor (Mus musculus, UniProt P35918); test: FLK-1 ELISA (cellular/catalytic); format: cell-based; settings: 50% inhibition of PTK activity compared to that in a control; read-out: FLK KINASE IC50
T1 construct: expressed in transfected cells; host or cells: NIH3T3 C7#3 cells
Method: (§1) The cellular/catalytic assays described herein are performed in an ELISA format. The general procedure is as follows: a compound is introduced to cells expressing the test kinase, either naturally or recombinantly, for a selected period of time after which, if the test kinase is a receptor, a ligand known to activate the receptor's activity is added. The cells are lysed and the lysate is transferred to the wells of an ELISA plate previously coated with a specific antibody recognizing the substrate of the enzymatic phosphorylation reaction. Non-substrate components of the cell lysate are washed away and the amount of phosphorylation on the substrate is detected with an antibody specifically recognizing phosphotyrosine and is compared with that of control cells that were not contacted with the test compound.
An ELISA assay is conducted to measure the kinase activity of the FLK-1 receptor and more specifically, the inhibition or activation of TK activity on the FLK-1 receptor. Specifically, the following assay can be conducted to measure kinase activity of the FLK-1 receptor in cells genetically engineered to express Flk-1.
k. NIH3T3 C7#3 Cells (FLK-1 expressing cells);
1. Coat Corning 96-well ELISA plates with 1.0 μg per well Cappel Anti-rabbit IgG antibody in 0.1M Na2CO3 pH 9.6. Bring final volume to 150 μl per well. Coat plates overnight at 4° C. […]

human EGF-R = target: T2, human EGF-R (Homo sapiens, UniProt P00533); test: EGF Receptor ELISA (cellular/catalytic); format: cell-based; settings: 50% inhibition of PTK activity compared to that in a control; read-out: EGFR KINASE IC50
T2 construct: expressed in transfected cells; host or cells: NIH 3T3/C7 cell line
Method: as §1
EGF Receptor kinase activity in cells genetically engineered to express human EGF-R can be measured as described below:
1. NIH 3T3/C7 cell line (Honegger, et al., Cell 51:199-209, 1987) can be use for this assay.
3. Resuspend cells in seeding medium (DMEM, 0.5% bovine serum), and count the cells using trypan blue. […]
12. The maximal phosphotyrosine signal is determined by subtracting the value of the negative controls from the positive controls. The percent inhibition of phosphotyrosine content for extract-containing wells is then calculated, after subtraction of the negative controls.

T2 sequence (P00533 25-1210): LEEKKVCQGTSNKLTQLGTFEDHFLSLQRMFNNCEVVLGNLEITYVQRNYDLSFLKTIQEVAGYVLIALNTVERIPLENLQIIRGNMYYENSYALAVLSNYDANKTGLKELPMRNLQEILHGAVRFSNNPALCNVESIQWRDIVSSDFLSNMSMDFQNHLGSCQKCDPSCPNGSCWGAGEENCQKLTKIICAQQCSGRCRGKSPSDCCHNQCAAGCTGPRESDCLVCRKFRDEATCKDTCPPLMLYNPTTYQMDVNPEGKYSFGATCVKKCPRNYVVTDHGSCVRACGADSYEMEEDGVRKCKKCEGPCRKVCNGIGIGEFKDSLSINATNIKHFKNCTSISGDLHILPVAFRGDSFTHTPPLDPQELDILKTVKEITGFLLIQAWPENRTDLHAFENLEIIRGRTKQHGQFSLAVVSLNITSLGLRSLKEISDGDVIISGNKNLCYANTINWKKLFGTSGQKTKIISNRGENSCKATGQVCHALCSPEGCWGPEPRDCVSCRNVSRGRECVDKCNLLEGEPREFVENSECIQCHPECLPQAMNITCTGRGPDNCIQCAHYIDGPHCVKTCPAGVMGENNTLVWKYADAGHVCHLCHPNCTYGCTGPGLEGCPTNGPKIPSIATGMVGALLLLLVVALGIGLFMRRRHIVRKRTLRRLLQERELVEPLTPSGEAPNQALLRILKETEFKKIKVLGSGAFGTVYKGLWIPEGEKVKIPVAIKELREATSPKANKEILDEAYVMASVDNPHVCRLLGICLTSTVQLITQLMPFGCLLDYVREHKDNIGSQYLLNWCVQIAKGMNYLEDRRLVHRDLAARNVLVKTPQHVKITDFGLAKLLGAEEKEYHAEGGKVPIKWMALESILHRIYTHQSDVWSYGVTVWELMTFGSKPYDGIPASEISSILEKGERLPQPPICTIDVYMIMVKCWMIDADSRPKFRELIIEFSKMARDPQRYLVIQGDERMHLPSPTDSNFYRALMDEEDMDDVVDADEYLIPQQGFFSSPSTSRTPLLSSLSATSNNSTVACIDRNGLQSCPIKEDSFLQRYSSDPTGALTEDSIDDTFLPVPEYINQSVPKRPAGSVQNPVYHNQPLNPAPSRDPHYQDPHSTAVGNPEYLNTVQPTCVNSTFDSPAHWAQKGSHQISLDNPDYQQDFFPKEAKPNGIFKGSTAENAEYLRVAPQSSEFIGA
T1 sequence (P35918 20-1345): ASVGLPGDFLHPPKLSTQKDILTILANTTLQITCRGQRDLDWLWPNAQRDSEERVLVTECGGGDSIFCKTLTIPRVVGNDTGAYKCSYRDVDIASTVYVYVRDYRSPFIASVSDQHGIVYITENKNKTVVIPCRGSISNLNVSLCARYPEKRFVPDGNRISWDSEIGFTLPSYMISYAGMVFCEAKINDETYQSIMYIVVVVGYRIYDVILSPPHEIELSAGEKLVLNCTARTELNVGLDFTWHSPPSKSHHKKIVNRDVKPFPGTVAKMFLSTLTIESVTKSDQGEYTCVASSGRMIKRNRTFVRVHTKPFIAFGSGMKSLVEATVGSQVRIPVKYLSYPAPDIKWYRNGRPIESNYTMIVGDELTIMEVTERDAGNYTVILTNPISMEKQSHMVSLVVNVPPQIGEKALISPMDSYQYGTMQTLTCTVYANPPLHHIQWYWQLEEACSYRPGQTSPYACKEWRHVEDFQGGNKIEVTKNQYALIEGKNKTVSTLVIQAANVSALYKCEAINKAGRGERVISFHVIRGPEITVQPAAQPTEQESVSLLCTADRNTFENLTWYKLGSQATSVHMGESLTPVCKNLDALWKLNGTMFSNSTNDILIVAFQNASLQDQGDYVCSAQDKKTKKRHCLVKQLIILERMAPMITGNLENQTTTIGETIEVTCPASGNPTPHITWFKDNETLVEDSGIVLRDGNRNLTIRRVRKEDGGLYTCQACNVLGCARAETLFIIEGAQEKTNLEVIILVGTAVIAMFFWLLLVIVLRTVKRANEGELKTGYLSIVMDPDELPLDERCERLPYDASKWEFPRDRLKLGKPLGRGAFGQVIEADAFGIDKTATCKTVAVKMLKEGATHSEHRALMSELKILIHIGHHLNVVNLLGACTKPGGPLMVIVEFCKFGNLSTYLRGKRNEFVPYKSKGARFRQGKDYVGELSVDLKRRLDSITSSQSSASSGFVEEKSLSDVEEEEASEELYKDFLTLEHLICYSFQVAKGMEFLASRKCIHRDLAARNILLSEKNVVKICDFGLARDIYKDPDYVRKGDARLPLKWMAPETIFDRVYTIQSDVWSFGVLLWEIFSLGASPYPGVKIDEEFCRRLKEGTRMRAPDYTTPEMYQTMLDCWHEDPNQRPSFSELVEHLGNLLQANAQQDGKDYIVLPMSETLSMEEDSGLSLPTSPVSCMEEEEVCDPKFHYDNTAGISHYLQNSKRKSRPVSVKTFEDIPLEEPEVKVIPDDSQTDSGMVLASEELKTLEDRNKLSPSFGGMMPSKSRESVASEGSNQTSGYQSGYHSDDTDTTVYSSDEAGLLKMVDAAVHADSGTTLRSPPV

Structure (SMILES): Cc1nc2c(nc1C)CC1=NC(c3ccccc3)=NC1=C2 [6,7-dimethyl-2-phenylimidazo[4,5-g]quinoxaline]
- IC50 (FLK-1 receptor): 88.4 µM
- IC50 (human EGF-R): > 100 µM
